Literature values as cited in patent US20090023692A1, “COMPOSITIONS FOR INHIBITING AND PREVENTING VASCULAR OCCLUSION CONTAINING NUTRITIONAL SUPPLEMENTS” (NeursoSci, Inc., priority 2005, published 2009).

Details: daily administration of low doses (approximately 80-100 mg), patients at risk for cardiovascular events

## CC(=O)Oc1ccccc1C(=O)O [aspirin, acetylsalicylic acid]
  reduction of second heart attacks, strokes, and cardiovascular deaths: at least 25%
